Test results taken from the supplement of paper PMC6045584.
± gives the standard deviation of the averaged measurements.

Columns and labels:
[1] = compound: CC(=O)c1c(C)c2cnc(Nc3ccc(N4CCNCC4)cn3)nc2n(C2CCCC2)c1=O; experiment: area under dose-response curve of surviving fraction (unscaled, Aref=0) (surviving fraction x log10(nM)); higher = more resistant; conditions: exposure time: 5 days; dose range 0.5-1000 nM
In short: (§1)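 Tumour cell lines in 384-well plates were exposed for five days to eight inhibitor concentrations from 0.5 to 1000 nM. Viability was read by CellTiter-Glo luminescence, normalised to DMSO-only wells, in three screens per line. Dose-response survival curves were fitted to surviving fractions by 3-parameter logistic regression in the drc R package. Area under the curve is the unscaled activity area (Aref = 0) over log10 dose.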

[2] = compound: CC(=O)NCC(=O)N1[C@@H]2CC[C@H]1c1ccc(Nc3ncc(C(F)(F)F)c(NC4CCC4)n3)cc12; experiment: as above; conditions: exposure time: 5 days; dose range 0.5-1000 nM
In short: as §1

PACLITAXEL [3] = compound: T1, CC(=O)O[C@H]1C(=O)[C@@]2(C)[C@H]([C@H](OC(=O)c3ccccc3)[C@]3(O)C[C@H](OC(=O)[C@H](O)[C@@H](NC(=O)c4ccccc4)c4ccccc4)C(C)=C1C3(C)C)[C@]1(OC(C)=O)CO[C@@H]1C[C@@H]2O [PACLITAXEL]; experiment: as above; conditions: exposure time: 5 days; dose range 0.5-1000 nM
In short: as §1

GEFITINIB = compound: COc1cc2ncnc(Nc3ccc(F)c(Cl)c3)c2cc1OCCCN1CCOCC1 [GEFITINIB]; experiment: surviving fraction relative to DMSO-only wells; higher = less growth inhibition; conditions: exposure time: 5 days
In short: (§2)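 Tumour cell lines in log phase were plated in 384-well plates at 250–500 cells per well, then, after 24 hours, exposed continuously for five days to inhibitors at 0.5, 1, 5, 10, 50, 100, 500 and 1000 nM. Viability came from CellTiter-Glo luminescence, and surviving fraction is that signal normalised to the median of DMSO-only wells. Plates were read after 10 minutes at room temperature, and each line, screened three times, was kept only when replicate Pearson r was >0.7 and median Z' was >0.3.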

[4] = compound: CC(=O)c1c(C)c2cnc(Nc3ccc(N4CCNCC4)cn3)nc2n(C2CCCC2)c1=O; experiment: as above; conditions: exposure time: 5 days
In short: as §2

YM155 = compound: COCC[n+]1c2c(n(Cc3cnccn3)c1C)C(=O)c1ccccc1C2=O [YM155]; experiment: as above; conditions: exposure time: 5 days
In short: as §2

[5] = compound: CC(=O)NCC(=O)N1[C@@H]2CC[C@H]1c1ccc(Nc3ncc(C(F)(F)F)c(NC4CCC4)n3)cc12; experiment: as above; conditions: exposure time: 5 days
In short: as §2

CAMPTOTHECIN = compound: CC[C@@]1(O)C(=O)OCc2c1cc1n(c2=O)Cc2cc3ccccc3nc2-1 [CAMPTOTHECIN]; experiment: as above; conditions: exposure time: 5 days
In short: as §2

CARBOPLATIN = compound: O=C(O)C1(C(=O)O)CCC1.[NH2-].[NH2-].[Pt+2] [CARBOPLATIN]; experiment: as above; conditions: exposure time: 5 days
In short: as §2

PACLITAXEL [6] = compound: T1, PACLITAXEL; experiment: as above; conditions: exposure time: 5 days
In short: as §2

OSI-906 = compound: C[C@]1(O)C[C@@H](c2nc(-c3ccc4ccc(-c5ccccc5)nc4c3)c3c(N)nccn32)C1 [OSI-906]; experiment: as above; conditions: exposure time: 5 days
In short: as §2

CELECOXIB = compound: Cc1ccc(-c2cc(C(F)(F)F)nn2-c2ccc(S(N)(=O)=O)cc2)cc1 [CELECOXIB]; experiment: as above; conditions: exposure time: 5 days
In short: as §2

HCC202 BREAST
area under dose-response curve [1]: 3.11
area under dose-response curve [2]: 4.5
area under dose-response curve (PACLITAXEL [3]): 1.37
surviving fraction (GEFITINIB; 0.5 nM): 1.4 ± 0.62
surviving fraction (GEFITINIB; 1 nM): 1.2 ± 0.23
surviving fraction (GEFITINIB; 5 nM): 1.35 ± 0.21
surviving fraction (GEFITINIB; 10 nM): 1.06 ± 0.14
surviving fraction (GEFITINIB; 50 nM): 1.32 ± 0.14
surviving fraction (GEFITINIB; 100 nM): 1.11 ± 0.37
surviving fraction (GEFITINIB; 500 nM): 0.542 ± 0.13
surviving fraction (GEFITINIB; 1000 nM): 0.345 ± 0.013
surviving fraction ([4]; 0.5 nM): 0.959 ± 0.31
surviving fraction ([4]; 1 nM): 0.859 ± 0.088
surviving fraction ([4]; 5 nM): 1.01 ± 0.094
surviving fraction ([4]; 10 nM): 0.874 ± 0.16
surviving fraction ([4]; 50 nM): 0.863 ± 0.17
surviving fraction ([4]; 100 nM): 1 ± 0.25
surviving fraction ([4]; 500 nM): 1.19 ± 0.15
surviving fraction ([4]; 1000 nM): 0.982 ± 0.22
surviving fraction (YM155; 0.5 nM): 1.19 ± 0.025
surviving fraction (YM155; 1 nM): 1.13 ± 0.014
surviving fraction (YM155; 5 nM): 1.34 ± 0.26
surviving fraction (YM155; 10 nM): 1.31 ± 0.22
surviving fraction (YM155; 50 nM): 0.411 ± 0.17
surviving fraction (YM155; 100 nM): 0.231 ± 0.037
surviving fraction (YM155; 500 nM): 0.0315 ± 0.00071
surviving fraction (YM155; 1000 nM): 0.0335 ± 0.0021
surviving fraction ([5]; 0.5 nM): 1.54 ± 0.18
surviving fraction ([5]; 1 nM): 1.09 ± 0.18
surviving fraction ([5]; 5 nM): 1.44 ± 0.13
surviving fraction ([5]; 10 nM): 1.5 ± 0.21
surviving fraction ([5]; 50 nM): 1.46 ± 0.16
surviving fraction ([5]; 100 nM): 1.32 ± 0.4
surviving fraction ([5]; 500 nM): 1.32 ± 0.15
surviving fraction ([5]; 1000 nM): 1.08 ± 0.26
surviving fraction (CAMPTOTHECIN; 0.5 nM): 1.05 ± 0.027
surviving fraction (CAMPTOTHECIN; 1 nM): 0.866 ± 0.17
surviving fraction (CAMPTOTHECIN; 5 nM): 0.734 ± 0.082
surviving fraction (CAMPTOTHECIN; 10 nM): 0.691 ± 0.24
surviving fraction (CAMPTOTHECIN; 50 nM): 0.78 ± 0.14
surviving fraction (CAMPTOTHECIN; 100 nM): 0.767 ± 0.1
surviving fraction (CAMPTOTHECIN; 500 nM): 0.478 ± 0.0071
surviving fraction (CAMPTOTHECIN; 1000 nM): 0.357 ± 0.0042
surviving fraction (CARBOPLATIN; 0.5 nM): 1.19 ± 0.33
surviving fraction (CARBOPLATIN; 1 nM): 1.05 ± 0.058
surviving fraction (CARBOPLATIN; 5 nM): 1.31 ± 0.09
surviving fraction (CARBOPLATIN; 10 nM): 1.07 ± 0.36
surviving fraction (CARBOPLATIN; 50 nM): 1.02 ± 0.23
surviving fraction (CARBOPLATIN; 100 nM): 1.14 ± 0.018
surviving fraction (CARBOPLATIN; 500 nM): 1.27 ± 0.4
surviving fraction (CARBOPLATIN; 1000 nM): 1.34 ± 0.34
surviving fraction (PACLITAXEL [6]; 0.5 nM): 1.15 ± 0.51
surviving fraction (PACLITAXEL [6]; 1 nM): 0.655 ± 0.15
surviving fraction (PACLITAXEL [6]; 5 nM): 0.377 ± 0.091
surviving fraction (PACLITAXEL [6]; 10 nM): 0.364 ± 0.12
surviving fraction (PACLITAXEL [6]; 50 nM): 0.362 ± 0.027
surviving fraction (PACLITAXEL [6]; 100 nM): 0.362 ± 0.047
surviving fraction (PACLITAXEL [6]; 500 nM): 0.352 ± 0.032
surviving fraction (PACLITAXEL [6]; 1000 nM): 0.327 ± 0.098
surviving fraction (OSI-906; 0.5 nM): 0.918 ± 0.1
surviving fraction (OSI-906; 1 nM): 0.867 ± 0.2
surviving fraction (OSI-906; 5 nM): 0.966 ± 0.052
surviving fraction (OSI-906; 10 nM): 0.8315 ± 0.0035
surviving fraction (OSI-906; 50 nM): 1.1 ± 0.021
surviving fraction (OSI-906; 100 nM): 1.07 ± 0.15
surviving fraction (OSI-906; 500 nM): 0.862 ± 0.18
surviving fraction (OSI-906; 1000 nM): 0.839 ± 0.18
surviving fraction (CELECOXIB; 0.5 nM): 1.15 ± 0.041
surviving fraction (CELECOXIB; 1 nM): 1.14 ± 0.04
surviving fraction (CELECOXIB; 5 nM): 1.2 ± 0.33
surviving fraction (CELECOXIB; 10 nM): 1.04 ± 0.09
surviving fraction (CELECOXIB; 50 nM): 1.06 ± 0.27
surviving fraction (CELECOXIB; 100 nM): 1.13 ± 0.18
surviving fraction (CELECOXIB; 500 nM): 1.36 ± 0.39
surviving fraction (CELECOXIB; 1000 nM): 1.12 ± 0.16
